From the NIST ThermoML archive (doi:10.1016/j.jct.2012.03.031)

Assay: molar heat capacity at constant pressure
Conditions: 101.33 kPa

CCCCc1ccc(C(=O)Oc2ccc(C#N)c(F)c2)cc1 [4-cyano-3-fluorophenyl 4-butylbenzoate]
Conditions	molar heat capacity at constant pressure [J/K/mol]
141.25 K, Crystal 1, Small (less than 1 g) adiabatic calorimetry	201.94
142.25 K, Crystal 1, Small (less than 1 g) adiabatic calorimetry	202.81
142.97 K, Crystal 2, Small (less than 1 g) adiabatic calorimetry	216.4
143.16 K, Crystal 1, Small (less than 1 g) adiabatic calorimetry	203.97
144.71 K, Crystal 1, Small (less than 1 g) adiabatic calorimetry	205.52
145.06 K, Crystal 1, Small (less than 1 g) adiabatic calorimetry	206.05
145.3 K, Crystal 2, Small (less than 1 g) adiabatic calorimetry	219.62
146.94 K, Crystal 1, Small (less than 1 g) adiabatic calorimetry	208.17
147.18 K, Crystal 1, Small (less than 1 g) adiabatic calorimetry	208.18
147.65 K, Crystal 2, Small (less than 1 g) adiabatic calorimetry	221.78
148.81 K, Crystal 1, Small (less than 1 g) adiabatic calorimetry	210.18
149.66 K, Crystal 1, Small (less than 1 g) adiabatic calorimetry	210.87
150 K, Crystal 1, Vacuum adiabatic calorimetry	211.22
150 K, Crystal 2, Small (less than 1 g) adiabatic calorimetry	226.25
150 K, Crystal 2, Vacuum adiabatic calorimetry	226.24
150.66 K, Crystal 1, Small (less than 1 g) adiabatic calorimetry	212.24
152.15 K, Crystal 1, Small (less than 1 g) adiabatic calorimetry	213.41
152.37 K, Crystal 2, Small (less than 1 g) adiabatic calorimetry	229.33
152.5 K, Crystal 1, Small (less than 1 g) adiabatic calorimetry	214.29
154.33 K, Crystal 1, Small (less than 1 g) adiabatic calorimetry	216.32
154.65 K, Crystal 1, Small (less than 1 g) adiabatic calorimetry	216.65
154.75 K, Crystal 2, Small (less than 1 g) adiabatic calorimetry	232.46
156.14 K, Crystal 1, Small (less than 1 g) adiabatic calorimetry	218.31
157.14 K, Crystal 2, Small (less than 1 g) adiabatic calorimetry	235.73
157.17 K, Crystal 1, Small (less than 1 g) adiabatic calorimetry	219.23
157.94 K, Crystal 1, Small (less than 1 g) adiabatic calorimetry	220.33
159.54 K, Crystal 2, Small (less than 1 g) adiabatic calorimetry	238.88
159.69 K, Crystal 1, Small (less than 1 g) adiabatic calorimetry	222.08
159.74 K, Crystal 1, Small (less than 1 g) adiabatic calorimetry	222.37
160 K, Crystal 1, Vacuum adiabatic calorimetry	222.43
160 K, Crystal 2, Vacuum adiabatic calorimetry	239.47
161.51 K, Crystal 1, Small (less than 1 g) adiabatic calorimetry	224.35
161.96 K, Crystal 2, Small (less than 1 g) adiabatic calorimetry	242.01
162.23 K, Crystal 1, Small (less than 1 g) adiabatic calorimetry	224.93
163.28 K, Crystal 1, Small (less than 1 g) adiabatic calorimetry	226.23
164.39 K, Crystal 2, Small (less than 1 g) adiabatic calorimetry	245.1
164.77 K, Crystal 1, Small (less than 1 g) adiabatic calorimetry	227.75
164.86 K, Crystal 1, Small (less than 1 g) adiabatic calorimetry	227.97
166.27 K, Crystal 1, Small (less than 1 g) adiabatic calorimetry	229.58
166.83 K, Crystal 2, Small (less than 1 g) adiabatic calorimetry	248.12
167.33 K, Crystal 1, Small (less than 1 g) adiabatic calorimetry	230.64
167.66 K, Crystal 1, Small (less than 1 g) adiabatic calorimetry	231.21
169.05 K, Crystal 1, Small (less than 1 g) adiabatic calorimetry	232.8
169.28 K, Crystal 2, Small (less than 1 g) adiabatic calorimetry	251.2
169.91 K, Crystal 1, Small (less than 1 g) adiabatic calorimetry	233.56
170 K, Crystal 1, Vacuum adiabatic calorimetry	233.66
170 K, Crystal 2, Vacuum adiabatic calorimetry	252.09
170.44 K, Crystal 1, Small (less than 1 g) adiabatic calorimetry	234.45
171.75 K, Crystal 2, Small (less than 1 g) adiabatic calorimetry	254.25
171.81 K, Crystal 1, Small (less than 1 g) adiabatic calorimetry	235.91
172.49 K, Crystal 1, Small (less than 1 g) adiabatic calorimetry	236.43
173.18 K, Crystal 1, Small (less than 1 g) adiabatic calorimetry	237.49
174.23 K, Crystal 2, Small (less than 1 g) adiabatic calorimetry	257.27
174.55 K, Crystal 1, Small (less than 1 g) adiabatic calorimetry	239.04
175.09 K, Crystal 1, Small (less than 1 g) adiabatic calorimetry	239.43
175.91 K, Crystal 1, Small (less than 1 g) adiabatic calorimetry	240.69
176.72 K, Crystal 2, Small (less than 1 g) adiabatic calorimetry	260.38
177.26 K, Crystal 1, Small (less than 1 g) adiabatic calorimetry	242.06
177.69 K, Crystal 1, Small (less than 1 g) adiabatic calorimetry	242.43
178.61 K, Crystal 1, Small (less than 1 g) adiabatic calorimetry	243.74
179.23 K, Crystal 2, Small (less than 1 g) adiabatic calorimetry	263.65
179.95 K, Crystal 1, Small (less than 1 g) adiabatic calorimetry	245.46
180 K, Crystal 1, Vacuum adiabatic calorimetry	245.15
180 K, Crystal 2, Vacuum adiabatic calorimetry	264.63
180.31 K, Crystal 1, Small (less than 1 g) adiabatic calorimetry	245.52
181.28 K, Crystal 1, Small (less than 1 g) adiabatic calorimetry	246.9
181.74 K, Crystal 2, Small (less than 1 g) adiabatic calorimetry	266.86
182.62 K, Crystal 1, Small (less than 1 g) adiabatic calorimetry	248.29
182.95 K, Crystal 1, Small (less than 1 g) adiabatic calorimetry	248.51
183.94 K, Crystal 1, Small (less than 1 g) adiabatic calorimetry	249.95
184.27 K, Crystal 2, Small (less than 1 g) adiabatic calorimetry	270.08
185.26 K, Crystal 1, Small (less than 1 g) adiabatic calorimetry	251.54
185.59 K, Crystal 1, Small (less than 1 g) adiabatic calorimetry	251.57
186.58 K, Crystal 1, Small (less than 1 g) adiabatic calorimetry	253
186.82 K, Crystal 2, Small (less than 1 g) adiabatic calorimetry	273.41
187.89 K, Crystal 1, Small (less than 1 g) adiabatic calorimetry	254.44
188.25 K, Crystal 1, Small (less than 1 g) adiabatic calorimetry	254.7
189.2 K, Crystal 1, Small (less than 1 g) adiabatic calorimetry	256.01
189.37 K, Crystal 2, Small (less than 1 g) adiabatic calorimetry	276.6
190 K, Crystal 1, Vacuum adiabatic calorimetry	256.78
190 K, Crystal 2, Vacuum adiabatic calorimetry	277.35
190.5 K, Crystal 1, Small (less than 1 g) adiabatic calorimetry	257.62
190.92 K, Crystal 1, Small (less than 1 g) adiabatic calorimetry	257.87
191.8 K, Crystal 1, Small (less than 1 g) adiabatic calorimetry	259.15
191.94 K, Crystal 2, Small (less than 1 g) adiabatic calorimetry	279.67
193.09 K, Crystal 1, Small (less than 1 g) adiabatic calorimetry	260.81
193.6 K, Crystal 1, Small (less than 1 g) adiabatic calorimetry	261.01
194.38 K, Crystal 1, Small (less than 1 g) adiabatic calorimetry	262.19
194.52 K, Crystal 2, Small (less than 1 g) adiabatic calorimetry	282.72
195.67 K, Crystal 1, Small (less than 1 g) adiabatic calorimetry	263.76
196.29 K, Crystal 1, Small (less than 1 g) adiabatic calorimetry	264.21
196.94 K, Crystal 1, Small (less than 1 g) adiabatic calorimetry	265.24
197.12 K, Crystal 2, Small (less than 1 g) adiabatic calorimetry	285.61
198.22 K, Crystal 1, Small (less than 1 g) adiabatic calorimetry	266.88
199 K, Crystal 1, Small (less than 1 g) adiabatic calorimetry	267.79
199.49 K, Crystal 1, Small (less than 1 g) adiabatic calorimetry	268.59
199.73 K, Crystal 2, Small (less than 1 g) adiabatic calorimetry	288.75
200 K, Crystal 1, Vacuum adiabatic calorimetry	269.03
200 K, Crystal 2, Vacuum adiabatic calorimetry	289.06
200.76 K, Crystal 1, Small (less than 1 g) adiabatic calorimetry	270.11
201.72 K, Crystal 1, Small (less than 1 g) adiabatic calorimetry	271.16
202.02 K, Crystal 1, Small (less than 1 g) adiabatic calorimetry	271.81
202.35 K, Crystal 2, Small (less than 1 g) adiabatic calorimetry	291.75
203.27 K, Crystal 1, Small (less than 1 g) adiabatic calorimetry	273.36
204.44 K, Crystal 1, Small (less than 1 g) adiabatic calorimetry	274.73
204.53 K, Crystal 1, Small (less than 1 g) adiabatic calorimetry	275.01
204.98 K, Crystal 2, Small (less than 1 g) adiabatic calorimetry	294.58
205.77 K, Crystal 1, Small (less than 1 g) adiabatic calorimetry	276.69
207.02 K, Crystal 1, Small (less than 1 g) adiabatic calorimetry	278.34
207.18 K, Crystal 1, Small (less than 1 g) adiabatic calorimetry	278.39
207.63 K, Crystal 2, Small (less than 1 g) adiabatic calorimetry	297.45
208.26 K, Crystal 1, Small (less than 1 g) adiabatic calorimetry	279.95
209.49 K, Crystal 1, Small (less than 1 g) adiabatic calorimetry	281.68
209.93 K, Crystal 1, Small (less than 1 g) adiabatic calorimetry	282.11
210 K, Crystal 1, Vacuum adiabatic calorimetry	282.2
210 K, Crystal 2, Vacuum adiabatic calorimetry	300.06
210.29 K, Crystal 2, Small (less than 1 g) adiabatic calorimetry	300.38
210.72 K, Crystal 1, Small (less than 1 g) adiabatic calorimetry	283.2
211.95 K, Crystal 1, Small (less than 1 g) adiabatic calorimetry	284.9
212.69 K, Crystal 1, Small (less than 1 g) adiabatic calorimetry	285.7
212.97 K, Crystal 2, Small (less than 1 g) adiabatic calorimetry	303.2
213.18 K, Crystal 1, Small (less than 1 g) adiabatic calorimetry	286.42
214.4 K, Crystal 1, Small (less than 1 g) adiabatic calorimetry	288
215.46 K, Crystal 1, Small (less than 1 g) adiabatic calorimetry	289.41
215.62 K, Crystal 1, Small (less than 1 g) adiabatic calorimetry	289.65
215.65 K, Crystal 2, Small (less than 1 g) adiabatic calorimetry	306.03
216.83 K, Crystal 1, Small (less than 1 g) adiabatic calorimetry	291.26
218.04 K, Crystal 1, Small (less than 1 g) adiabatic calorimetry	292.84
218.24 K, Crystal 1, Small (less than 1 g) adiabatic calorimetry	293.08
218.35 K, Crystal 2, Small (less than 1 g) adiabatic calorimetry	308.99
219.24 K, Crystal 1, Small (less than 1 g) adiabatic calorimetry	294.47
220 K, Crystal 1, Vacuum adiabatic calorimetry	295.42
220 K, Crystal 2, Vacuum adiabatic calorimetry	310.55
220.45 K, Crystal 1, Small (less than 1 g) adiabatic calorimetry	296.21
221.03 K, Crystal 1, Small (less than 1 g) adiabatic calorimetry	296.79
